Test results published in ChEMBL document CHEMBL5252650, “An ATG4B inhibitor blocks autophagy and sensitizes Sorafenib inhibition activities in HCC tumor cells” (Bioorg Med Chem, 2023).
The source made the active and inactive calls. No cut-off for these calls is given here.

Experiments:
[1] = system: SK-HEP1; experiment: Inhibition of colony formation in human SK-HEP1 cells at 10 uM incubated for 14 days in presence of sorafenib by crystal violet staining based analysis; assay type: functional, cell-based; details: time 14.0 day
[2] = Inhibition of sorafenib-induced autophagic flux in human Huh-7 cells assessed as fold increase in p62 protein expression at 20 uM incubated for 24 hrs in presence of 5 uM sorafenib by immunoblot analysis relative to control; assay type: functional
[3] = system: SK-HEP1; experiment: Inhibition of autophagy in human SK-HEP1 cells assessed as fold increase in LC3B-II protein expression at 10 uM incubated for 24 hrs by immunoblot analysis relative to control; assay type: functional
[4] = Inhibition of sorafenib-induced autophagic flux in human SK-HEP1 cells assessed as fold increase in p62 protein expression at 20 uM incubated for 24 hrs in presence of 10 uM sorafenib by immunoblot analysis relative to control; assay type: functional
[5] = system: SK-HEP1; experiment: Cytotoxicity against human SK-HEP1 cells assessed as reduction in cell viability incubated for 72 hrs by CellTiter-Glo luminescent assay; assay type: functional, cell-based; details: SK-HEP1, 72 h
[6] = system: Huh-7; experiment: Inhibition of autophagy in human Huh-7 cells assessed as reduction in LC3B-I protein expression at 10 to 20 uM incubated for 24 hrs by immunoblot analysis; assay type: functional, cell-based; details: dose 10-20 µM
[7] = system: Huh-7; experiment: Inhibition of autophagy in human Huh-7 cells assessed as fold increase in LC3B-II protein expression at 20 uM incubated for 24 hrs by immunoblot analysis relative to control; assay type: functional
[8] = system: SK-HEP1; experiment: Inhibition of autophagy in human SK-HEP1 cells assessed as reduction in LC3B-I protein expression at 10 to 20 uM incubated for 24 hrs by immunoblot analysis; assay type: functional, cell-based; details: dose 10-20 µM
[9] = target: T1, Cysteine protease ATG4B (Homo sapiens) (UniProt Q9Y4P1); experiment: (§1) Inhibition of N-terminal His6/SUMO-tagged full length human ATG4B expressed in Escherichia coli BL21 (DE3) cells using His-LC3B-GST as substrate preincubated with enzyme for 1 hr followed by substrate addition for 1 hr by HTRF assay; details: time 2.0 hrs
T1 sequence (whole entry): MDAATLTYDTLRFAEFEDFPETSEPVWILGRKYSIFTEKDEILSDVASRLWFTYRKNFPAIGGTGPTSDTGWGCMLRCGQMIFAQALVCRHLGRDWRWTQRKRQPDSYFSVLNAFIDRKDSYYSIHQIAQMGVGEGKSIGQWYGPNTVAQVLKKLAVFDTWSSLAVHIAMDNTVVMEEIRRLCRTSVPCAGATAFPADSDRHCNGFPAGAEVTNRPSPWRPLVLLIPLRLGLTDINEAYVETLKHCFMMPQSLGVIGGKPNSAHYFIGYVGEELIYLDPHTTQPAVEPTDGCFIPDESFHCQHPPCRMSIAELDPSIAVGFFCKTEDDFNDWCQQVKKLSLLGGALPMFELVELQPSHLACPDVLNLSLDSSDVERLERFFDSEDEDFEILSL

[10] = target: T2, Cysteine protease ATG4B (Homo sapiens, UniProt Q9Y4P1); experiment: as §1
T2 sequence (Q9Y4P1 whole entry): T1 sequence (whole entry)

[11] = Inhibition of sorafenib-induced autophagic flux in human SK-HEP1 cells assessed as fold increase in LC3B-II protein expression at 20 uM incubated for 24 hrs in presence of 5 uM sorafenib by immunoblot analysis relative to control; assay type: functional
[12] = system: MRC5; experiment: Cytotoxicity against human MRC5 cells; assay type: toxicity, cell-based
[13] = system: Huh-7; experiment: Cytotoxicity against human Huh-7 cells assessed as reduction in cell viability incubated for 72 hrs by CellTiter-Glo luminescent assay; assay type: functional, cell-based; details: Huh-7, 72 h
[14] = system: IMR-90; experiment: Cytotoxicity against human IMR-90 cells; assay type: toxicity, cell-based
[15] = system: SK-HEP1; experiment: Potentiation of sorafenib-induced antiproliferative activity against human SK-HEP1 cells assessed as inhibition of cell proliferation at 20 uM incubated for 5 days in presence of sorafenib by CTG assay; assay type: functional, cell-based; details: time 5.0 day
[16] = system: Huh-7; experiment: Inhibition of sorafenib-induced autophagic flux in human Huh-7 cells overexpressing TurboRFP-EGFP-LC3B assessed as increase in yellow dot puncta formation at 10 uM incubated for 24 hrs in presence of 5 uM sorafenib by immunofluorescence assay; assay type: functional, cell-based
[17] = Inhibition of sorafenib-induced autophagic flux in human SK-HEP1 cells assessed as fold increase in p62 protein expression at 20 uM incubated for 24 hrs in presence of 5 uM sorafenib by immunoblot analysis relative to control; assay type: functional
[18] = system: SK-HEP1; experiment: Inhibition of autophagy in human SK-HEP1 cells assessed as fold increase in p62 protein expression at 10 uM incubated for 24 hrs by immunoblot analysis relative to control; assay type: functional
[19] = Inhibition of sorafenib-induced autophagic flux in human SK-HEP1 cells assessed as fold increase in LC3B-II protein expression at 20 uM incubated for 24 hrs in presence of 10 uM sorafenib by immunoblot analysis relative to control; assay type: functional
[20] = system: Huh-7; experiment: Inhibition of autophagy in human Huh-7 cells assessed as fold increase in LC3B-II protein expression at 10 uM incubated for 24 hrs by immunoblot analysis relative to control; assay type: functional
[21] = target: T1, Cysteine protease ATG4B (Homo sapiens); experiment: Binding affinity to N-terminal His6/SUMO-tagged full length human ATG4B expressed in Escherichia coli BL21 (DE3) cells at 100 uM by CPMG spectroscopy
[22] = Inhibition of sorafenib-induced autophagic flux in human Huh-7 cells assessed as fold increase in p62 protein expression at 20 uM incubated for 24 hrs in presence of 10 uM sorafenib by immunoblot analysis relative to control; assay type: functional
[23] = system: Huh-7; experiment: Inhibition of autophagy in human Huh-7 cells assessed as fold increase in p62 protein expression at 10 uM incubated for 24 hrs by immunoblot analysis relative to control; assay type: functional
[24] = system: Huh-7; experiment: Potentiation of sorafenib-induced antiproliferative activity against human Huh-7 cells assessed as inhibition of cell proliferation at 20 uM incubated for 5 days in presence of sorafenib by CTG assay; assay type: functional, cell-based; details: time 5.0 day
[25] = system: Huh-7; experiment: Inhibition of colony formation in human Huh-7 cells at 10 uM incubated for 14 days in presence of sorafenib by crystal violet staining based analysis; assay type: functional, cell-based; details: time 14.0 day
[26] = system: SK-HEP1; experiment: Inhibition of autophagy in human SK-HEP1 cells assessed as fold increase in p62 protein expression at 20 uM incubated for 24 hrs by immunoblot analysis relative to control; assay type: functional
[27] = target: T1, Cysteine protease ATG4B (Homo sapiens); experiment: Inhibition of N-terminal His6/SUMO-tagged full length human ATG4B expressed in Escherichia coli BL21 (DE3) cells assessed as reduction in substrate cleavage using His-LC3B-GST as substrate preincubated with enzyme for 1 hr followed by substrate addition for 30 mins by gel electrophoresis analysis; details: dose 3.125-50 µM, time 1.5 hrs
[28] = system: Huh-7; experiment: Inhibition of autophagy in human Huh-7 cells overexpressing TurboRFP-EGFP-LC3B assessed as increase in number of red dots at 10 uM incubated for 24 hrs by immunofluorescence assay; assay type: functional, cell-based
[29] = Inhibition of sorafenib-induced autophagic flux in human Huh-7 cells assessed as fold increase in LC3B-II protein expression at 20 uM incubated for 24 hrs in presence of 10 uM sorafenib by immunoblot analysis relative to control; assay type: functional
[30] = system: Huh-7; experiment: Inhibition of autophagy in human Huh-7 cells overexpressing TurboRFP-EGFP-LC3B assessed as increase in yellow dot puncta formation at 10 uM incubated for 24 hrs by immunofluorescence assay; assay type: functional, cell-based
[31] = system: SK-HEP1; experiment: Inhibition of autophagy in human SK-HEP1 cells assessed as fold increase in LC3B-II protein expression at 20 uM incubated for 24 hrs by immunoblot analysis relative to control; assay type: functional
[32] = Inhibition of sorafenib-induced autophagic flux in human Huh-7 cells assessed as fold increase in LC3B-II protein expression at 20 uM incubated for 24 hrs in presence of 5 uM sorafenib by immunoblot analysis relative to control; assay type: functional
[33] = system: Huh-7; experiment: Inhibition of autophagy in human Huh-7 cells assessed as fold increase in p62 protein expression at 20 uM incubated for 24 hrs by immunoblot analysis relative to control; assay type: functional
[34] = target: T2, Cysteine protease ATG4B; experiment: Binding affinity to N-terminal His6/SUMO-tagged full length human ATG4B expressed in Escherichia coli BL21 (DE3) cells by SPR assay

In the case of S=C(Nc1ccc2nc(-c3ccco3)c(-c3ccco3)nc2c1)N1CCCCCC1, the inhibition [1] is reported as “Active”, the “fold change (FC)” value [2] is reported as 1.1 and the “fold change (FC)” value [3] is reported as 1.46. The “fold change (FC)” value [4] was 0.82, the IC50 [5] was 23.6 µM and the inhibition [6] was “Active”. The “fold change (FC)” value [7] was 1.6, the inhibition [8] was “Active” and the inhibition [9] was “Dose-Dependent Effect”. For the same compound, the IC50 [10] was 3.08 µM, the “fold change (FC)” value [11] was 0.82 and the Activity [12] was “Non-Toxic”. For the same compound, the IC50 [13] was 25.3 µM, the Activity [14] was “Non-Toxic” and the Activity [15] was “Active”. For the same compound, the inhibition [16] was “Active”, the “fold change (FC)” value [17] was 0.85 and the “fold change (FC)” value [18] was 2.1. The “fold change (FC)” value [19] was 0.66, the “fold change (FC)” value [20] was 1.5 and the Activity [21] was “Active”. For the same compound, the “fold change (FC)” value [22] was 0.84, the “fold change (FC)” value [23] was 2.3 and the Activity [24] was “Active”. For the same compound, the inhibition [25] was “Active”, the “fold change (FC)” value [26] was 2.4 and the inhibition [27] was “Dose-Dependent Effect”. For the same compound, the inhibition [28] was “Active”, the “fold change (FC)” value [29] was 0.64 and the inhibition [30] was “Active”. For the same compound, the “fold change (FC)” value [31] was 1.6, the “fold change (FC)” value [32] was 0.76 and the “fold change (FC)” value [33] was 2.8. The Kd [34] was 14.3 µM.
